Results taken from ChEMBL document CHEMBL2029313, “Design, synthesis and biological evaluation of potent NAD+-dependent DNA ligase inhibitors as potential antibacterial agents. Part I: aminoalkoxypyrimidine carboxamides” (Bioorg Med Chem Lett, 2012).
Converted amounts (≈) assume the structure as drawn.

Legend:
Escherichia coli [1] = test: Antibacterial activity against efflux-deficient Escherichia coli 1260 expressing transducant lig251 gene encoding temperature sensitive ligA; assay type: functional
[2] = Inhibition of Escherichia coli NAD+-dependent DNA ligase
Escherichia coli [3] = test: Antibacterial activity against wild-type TolC-positive Escherichia coli 1410 expressing ligA gene; assay type: functional
Staphylococcus aureus = test: Antibacterial activity against Staphylococcus aureus ATCC 29213; assay type: functional
Escherichia coli [4] = test: Antibacterial activity against TolC-positive Escherichia coli 1201 expressing lig251 gene; assay type: functional
DNA ligase 1 = DNA ligase 1 (Homo sapiens, UniProt P18858); test: Inhibition of human ATP-dependent DNA ligase 1
DNA ligase 1, sequence (P18858 whole entry): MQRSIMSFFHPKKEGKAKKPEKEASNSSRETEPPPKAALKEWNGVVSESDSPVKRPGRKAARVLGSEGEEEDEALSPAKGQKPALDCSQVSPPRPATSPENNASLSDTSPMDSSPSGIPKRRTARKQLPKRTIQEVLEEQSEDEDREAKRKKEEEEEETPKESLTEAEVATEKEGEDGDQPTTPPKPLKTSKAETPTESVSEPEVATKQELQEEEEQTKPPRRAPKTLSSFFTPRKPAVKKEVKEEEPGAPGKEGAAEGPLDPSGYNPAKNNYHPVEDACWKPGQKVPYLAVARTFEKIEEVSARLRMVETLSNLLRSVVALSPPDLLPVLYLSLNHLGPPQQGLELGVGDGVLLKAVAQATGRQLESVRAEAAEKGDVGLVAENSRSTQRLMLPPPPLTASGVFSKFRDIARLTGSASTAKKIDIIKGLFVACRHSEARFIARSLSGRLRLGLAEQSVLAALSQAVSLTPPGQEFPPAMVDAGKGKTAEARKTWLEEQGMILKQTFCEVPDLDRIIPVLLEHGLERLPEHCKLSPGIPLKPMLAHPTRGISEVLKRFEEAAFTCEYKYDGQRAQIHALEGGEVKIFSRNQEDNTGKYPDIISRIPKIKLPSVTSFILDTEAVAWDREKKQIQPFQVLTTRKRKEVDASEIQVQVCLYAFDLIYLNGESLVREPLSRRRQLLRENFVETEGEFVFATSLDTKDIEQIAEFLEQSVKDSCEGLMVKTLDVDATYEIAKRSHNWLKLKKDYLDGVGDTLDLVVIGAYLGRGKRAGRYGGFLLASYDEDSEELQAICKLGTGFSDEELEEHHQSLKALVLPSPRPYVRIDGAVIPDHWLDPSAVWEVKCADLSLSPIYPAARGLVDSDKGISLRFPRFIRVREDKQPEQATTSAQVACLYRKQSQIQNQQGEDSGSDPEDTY

Haemophilus influenzae = test: Antibacterial activity against Haemophilus influenzae ATCC 51907; assay type: functional
Streptococcus pneumoniae = test: Antibacterial activity against Streptococcus pneumoniae ATCC 10015; assay type: functional

SMILES	MIC (Escherichia coli [1]) [µM]	IC50 [2] [nM]	MIC (Escherichia coli [3]) [µM]	MIC (Staphylococcus aureus) [µM]	MIC (Escherichia coli [4]) [µM]	IC50 (DNA ligase 1) [nM]	MIC (Haemophilus influenzae) [µM]	MIC (Streptococcus pneumoniae) [µM]
NC(=O)c1cnc(OCCF)nc1N	28 (≈ 5.6 µg/mL)	920	> 100	> 100	23 (≈ 4.6 µg/mL)	> 55000		
CNc1nc(OCC2CCCC2)ncc1C(N)=O	> 100	> 55000	> 100	> 100	> 100			
COCCNc1nc(OCC2CCCC2)ncc1C(N)=O	> 100	> 55000	> 100	> 100	> 100			
Nc1nc(OCC2CCCC2)ncc1C(=O)NCC1CCCO1 (stereo not drawn)	> 100	> 55000	> 100	> 100	> 100			
Nc1nc(OCC2CCCC2)ncc1C(=O)NCCCN1CCCC1=O	> 100	> 55000	> 100	> 100	> 100			
Nc1nc(OC2CCCC2)ncc1S(N)(=O)=O	> 100	> 40000	> 100	> 100	> 100			
N=C(N)c1cnc(OC2CCCC2)nc1N	100 (≈ 22.1 µg/mL)	8100	> 100	> 100	> 100			
NC(=O)c1c(N)nc(OC2CCCC2)nc1O[C@H]1CCC[C@H]1O	9.4 (≈ 3.03 µg/mL)	120	> 100	> 100	> 100	> 55000		
NC(=O)c1c(N)nc(OC2CCCC2)nc1O[C@H]1CCCC[C@@H]1O	1.6 (≈ 0.538 µg/mL)	46	> 100	45 (≈ 15.1 µg/mL)	> 100	> 55000		
NC(=O)c1c(N)nc(OC2CCCC2)nc1OC1CCCCC1F (stereo not drawn)	1.2 (≈ 0.406 µg/mL)	19	> 100	> 100	> 100	> 55000		
NC(=O)c1c(N)nc(OC2CCCC2)nc1Oc1ccccc1F	9.4 (≈ 3.12 µg/mL)	64	> 100	> 100	> 100	> 55000		
NC(=O)c1c(N)nc(OC2CCCC2)nc1Oc1cccc(CCC(=O)O)c1	1.2 (≈ 0.464 µg/mL)	78	> 100	83 (≈ 32.1 µg/mL)	> 100	> 55000		
NC(=O)c1c(N)nc(OC2CCCC2)nc1O[C@H]1CCCC[C@@H]1CO	1.2 (≈ 0.421 µg/mL)	14	> 100	100 (≈ 35 µg/mL)	> 100	> 55000		
COc1cc(NC[C@H]2CCCC(Oc3nc(OC4CCCC4)nc(N)c3C(N)=O)C2)cc(OC)c1 (stereo partly drawn)	1.6 (≈ 0.777 µg/mL)	80	> 100	> 100	> 100	> 55000		
C[C@H]1CC[C@H](Oc2nc(N)c(C(N)=O)c(O[C@H]3CCC[C@@H]3O)n2)CC1	1.2 (≈ 0.421 µg/mL)	180	> 100	100 (≈ 35 µg/mL)	> 100	> 55000	12.5 (≈ 4.38 µg/mL)	75 (≈ 26.3 µg/mL)

Continued, values first:

MIC (Escherichia coli [1]) [µM]	IC50 [2] [nM]	MIC (Escherichia coli [3]) [µM]	MIC (Staphylococcus aureus) [µM]	MIC (Escherichia coli [4]) [µM]	IC50 (DNA ligase 1) [nM]	MIC (Haemophilus influenzae) [µM]	MIC (Streptococcus pneumoniae) [µM]	SMILES
9.4 (≈ 2.09 µg/mL)	610	> 100	> 100	100 (≈ 22.2 µg/mL)	> 55000			NC(=O)c1cnc(OC2CCCC2)nc1N
9.8 (≈ 2.32 µg/mL)	560	> 100	> 100	> 100	> 55000			NC(=O)c1cnc(OC2CCCCC2)nc1N
3.1 (≈ 0.776 µg/mL)	240	> 100	> 100	> 100	> 55000			C[C@H]1CCCC[C@H]1Oc1ncc(C(N)=O)c(N)n1
15 (≈ 2.94 µg/mL)	410	> 100	> 100	27 (≈ 5.3 µg/mL)	> 55000			CC(C)Oc1ncc(C(N)=O)c(N)n1
> 100	> 10000	> 100	> 100	> 100	> 55000			CC(Oc1ncc(C(N)=O)c(N)n1)C(=O)O (stereo not drawn)
33 (≈ 7.86 µg/mL)	6900	> 100	> 100	> 100				NC(=O)c1cnc(SC2CCCC2)nc1N
> 100	> 55000	> 100	> 100	> 100				NC(=O)c1cnc(NC2CCCC2)nc1N
> 100	> 55000	> 100	> 100	> 100				NC(=O)c1cnc(CCC2CCCC2)nc1N
4.7 (≈ 1.39 µg/mL)	630	> 100	> 100	> 100	> 55000			CC(C)Oc1nc(N)c(C(N)=O)c(O[C@H]2CCC[C@@H]2O)n1
6.3 (≈ 1.85 µg/mL)	61	> 100	> 100	> 100	> 55000			CC(C)Oc1nc(N)c(C(N)=O)c(OC2CCCCC2)n1
